# In patent US9827277B2, “Sulphated polysaccharide composition” (UNIVERSITÉ BLAISE PASCAL—CLERMONT II, priority 2012, dated 2017):
# Legend:
# [1] = system: HFF (Human Foreskin Fibroblast) cells; experiment: Cytotoxicity test (sulforhodamine B) on HFF cells; assay type: cell-based
# Experimental: Culturing of HFF (Human Foreskin Fibroblast Cells in 96-Well Plate From a 75 cm^2 flask of HFF cells at confluence, the culture medium was removed, and then 2 mL of trypsin-EDTA (0.025% trypsin and 0.01% EDTA—Ethylenediaminetetraacetic acid) was added (at 37° C.). The flask was then briefly rinsed and the trypsin was removed. 2 mL of trypsin-EDTA was subsequently added and the flask was incubated for 5 minutes in an oven at 37° C.
# 5 ml of culture medium (minimal essential medium—MEM (PARA Laboratories GmbH)+Glutamine (2 mM)+Fungizone (2.5 μg/mL)+Penicillin (100 units/mL)+Streptomycin (100 μg/mL)+decomplemented Foetal Calf Serum 15%) was added and then the flask was rinsed with a pipette. The medium and cells were recovered in a tube. Counting on the Malassez counting chamber was then performed.
# The cells were subsequently centrifuged at 200 g, for 7 minutes, and then the supernatant was removed. The pellet was taken up in the culture medium in a manner so as to obtain 10^5 cells/mL.
# 200 μL of this suspension per well was distributed, while leaving empty the wells of columns 1 and 12 and rows A and H. The wells that were left empty were filled with 200 μL of culture medium in order to prevent evaporation.
# When the cells had reached confluence in the wells (about 48 hours), the medium was aspirated by making use of a vacuum extractor pump and then 200 μL of culture medium containing the various polysaccharides to be tested (the latter are tested at 50, 100, and 200 μg/mL) was added.
# Each concentration was tested in triplicate. […]
# The proteins were solubilised by using 200 μL of Tris-Base (10 mM) for 5 minutes on a plate with stirring at ambient temperature. The OD (Optical Density) at 550 nm was measured by making use of a microplate reader (Multiskan FC357, Thermo Scientific).
# The mean of the OD and the standard deviation have been calculated for each sample tested in order to arrive at a conclusion with respect to the toxicity of the products.
# Nosema ceranae = experiment: Inhibitory activity in vivo on Nosema in honey bees
# Experimental: The results presented here have been obtained from the summer honey bees.
# After recovering one brood chamber frame (or more as per the needs in honey bees) from the apiary by means of a glass frame holder, the latter was placed in an oven at 34° C. for a period of 24 to 48 hours in a manner so as to allow the honey bees to emerge from their cells. Then, the young honey bees were retrieved from the frame by making use of a pair of entomologist's forceps and placed in the beekeeping boxes (supers) on the basis of 50 honey bees/box. ⅙^th of a tube stick of PseudoQueen (Contech Enterprises, Canada) was added in each of the beekeeping boxes.
# Each polysaccharide treatment was carried out in triplicate (three boxes/treatment). Each test operation contained a “healthy honey bees” control (honey bees not infected and not treated), an “infected honey bees” control (honey bees infected experimentally and not treated) and a fumagillin control; with these controls also being in triplicate. […]
# Over the course of the post-Infection phase (a time period of 20 days), the dead honey bees were counted and removed on a daily basis from each of the boxes in order to track and monitor mortality. […]
smiles,measurement,setting,value
"C[S+](C)[O-] [DMSO Positive Control, DMSO]",Conclusion,"[1]; HFF cells, culture medium containing 20% of DMSO, 96 hours",Cytotoxic: control validated
same,Viability (%),"[1]; HFF cells, positive control: culture medium containing 20% of DMSO, 96 hours of incubation",6.8 +/− 1.4%
"CO[C@@H]1[C@H](OC(=O)/C=C/C=C/C=C/C=C/C(=O)O)CC[C@]2(CO2)[C@H]1[C@@]1(C)O[C@@H]1CC=C(C)C [Fumagillin Control, fumagillin]",Viability (%),"[1]; human, 96 h, 1 μg/mL",99.1 +/− 12.2%
same,Mortality at 20 days post-infection (%),"Nosema ceranae; honey bees infected with 125,000 N. ceranae spores, syrup supplemented with 1 μg/mL fumagillin, fed 3 days before and 20 days after infection",25.9 +/− 16.7%
same,Change in parasite load (decrease),"Nosema ceranae; spore count at 20 days vs infected honey bees control, syrup with 1 μg/mL fumagillin",Decrease of 63.4%
